In ChEMBL document CHEMBL1817637, “Viridaphin A₁ glucoside, a green pigment possessing cytotoxic and antibacterial activity from the aphid Megoura crassicauda” (J Nat Prod, 2011):
In brackets after ≈: the same amount, converted by molar mass.

How the values were obtained:
HL-60 = assay: Cytotoxicity against human HL60 cells; assay type: functional, cell-based
Bacillus subtilis = assay: Antimicrobial activity against Bacillus subtilis NBRC 3134; assay type: functional

MIC (Bacillus subtilis) [µg/mL] | Structure (SMILES) | IC50 (HL-60) [µM]
10 (≈ 14.2 µM) | C[C@@H]1Cc2c(c(O)c3c(=O)cc4oc5c(O)cc(O[C@@H]6O[C@H](CO)[C@@H](O)[C@H](O)[C@H]6O)c6c(=O)c7c8c(c56)c4c3c2O[C@@]8(O)[C@@H](C)O[C@@H]7C)[C@@H](C)O1 [VIRIDAPHIN A1 GLUCOSIDE] | 23
 | CCCCCC[C@H]1C(=O)O[C@H](C)[C@H](NC(=O)c2cccc(NC=O)c2O)C(=O)O[C@@H](C)[C@@H]1OC(=O)CC(C)C [ANTIMYCIN A] | 45
